Key:
[1] = tested on: perceived sweetness of pH 3.2 buffered sucrose solution (expert panel members); assay: Sucrose Equivalent Value (SEV): expert panel matches test solution to stock sucrose solutions; assay type: in vivo; details: for effect on sweetness of the sucrose solution (dose response curve): 0 to 1000 ppm in pH 3.2 buffered 5% sucrose solution; for sweetness enhancement of sucrose solutions by different forms of 2,4-DHB: 500 ppm in pH 3.2 buffered 0%, 3%, 5%, 7% and 9% sucrose; for SEV (%): 500 ppm potentiator in pH 3.2 buffered solution containing 5% sucrose
Method: (§1) One method of measuring the perceived sweetness of a solution is to match it with a stock sucrose solution of known concentration. In the present experiments, the compound of interest is added at a predetermined concentration to a pH 3.2 buffered solution containing 5% sucrose. A number of expert panel members then taste the solution and compare it to a battery of stock sucrose solutions ranging from 3% to 15% at increments of 1%. Each panel member decides which sucrose solution is equisweet with the solution containing the compound of interest. The mean value is then reported as the SEV. Results are reported to 1 decimal place.
In accordance with this methodology, 3-HB was added to a pH 3.2 buffered solution containing 5% sucrose to produce solutions containing from 0 to 1000 ppm 3-HB in 100 ppm increments. […] From FIG. 1 it is apparent that as the dosage of 3-HB increases so does the sweetness of the resultant solution. However the effect is non-linear with each incremental addition having a diminishing effect. The maximum sweetness attainable would appear to be about 7.9% SEV (based on a 5% sucrose solution).
The same methodology as described in Example 1 was repeated with 2,4-DHB in place of 3-HB, to produce the dose response curve for 2,4-DHB (FIG. 2). […] The maximum attainable sweetness would appear to be about 6.7% SEV (based on a 5% sucrose solution).
500 ppm of a sweetener potentiator was added to a pH 3.2 buffered solution containing 5% sucrose and the SEV of the resultant solution determined.
500 ppm of the sweetener potentiator then was added to a 5% sucrose solution containing 500 ppm 3-HB to produce a series of solutions. […] The use of 500 ppm of 3-HB alone results in an SEV of 6.9% whereas in all cases but two (2,4-DHB and 3,4-DHB) the addition of a second sweetener potentiator results in a little change or even a decrease in SEV. This is highly surprising considering that all of the potentiators are shown to have SEVs greater than 5%.
The methodology was repeated to produce a series of solutions containing 500 ppm 2,4-DHB and 500 ppm of a second sweetener potentiator.
500 ppm of 3-HB, 500 ppm of 2,4-DHB and 500 ppm of 3,4-dihydroxybenzoic acid (3,4-DHB) were added to a pH 3.2 buffered solution containing 5% sucrose and the SEV determined. The results are shown in FIG. 7 together with other combinations of 3-HB, 2,4-DHB and 3,4-DHB for comparison. The solution containing the combination of 3-HB and 2,4-DHB (hatched) has a much higher SEV (8.7%) than the combination of either 3,4-DHB and 3-HB (7.6%) or the combination of 3,4-DHB and 2,4-DHB (6.8%). The three-way combination of the embodiment (hatched) is better still with an SEV of 9.8%.
pH 3.2 buffered solutions were prepared containing 0%, 3%, 5%, 7% and 9% sucrose. 500 ppm of 2,4-DHB acid, 500 ppm of the sodium salt of 2,4-DHB and 500 ppm of the potassium salt of 2,4-DHB were added individually to each of the sucrose solutions. The SEV for each of the solutions was then determined.
500 ppm of 3-aminobenzoic acid and 500 ppm of 4-aminobenzoic acid were individually added to separate pH 3.2 buffered solutions containing 5% sucrose and the SEVs of the resultant solutions were determined. The SEV of 3-aminobenzoic acid was about 7%, i.e., increased the sweetness intensity of 5% sucrose to about 7%. The SEV of 4-aminobenzoic acid was about 5.5-6%, i.e., increased the sweetness intensity of 5% sucrose to about 5.5-6%.

[2] = tested on: sweetness perception of sweeteners; details: cited from earlier work
[3] = tested on: perceived sweetness of non-sucrose sweetener solutions (SEV about 5%); assay: SEV of non-sucrose sweetener solutions after addition of potentiators; assay type: in vivo; details: 500 ppm 3-HB alone versus with 500 ppm 2,4-DHB, pH 3.2
Method: as §1
The SEV of each sweetener solution was then evaluated after the addition 500 ppm of 3-HB, the addition of 500 ppm of 2,4-DHB and the addition of both 500 ppm 3-HB and 2,4-DHB.

O=C(O)c1ccc(O)cc1O [2,4-dihydroxybenzoic acid (2,4-DHB), 2,4-dihydroxybenzoic acid]
effect on sweetness of the sucrose solution (dose response curve) [1]: enhances the sweetness of the sucrose solution
sweetness enhancement of sucrose solutions by different forms of 2,4-DHB [1]: enhances the sweetness of the sucrose solution in every case
effect on sweetness intensity of sucralose and aspartame ([2]; FIGS. 1 and 2, Tables 1 and 2 of US 6,461,658): slightly inhibitory effect
listed taste character ([2]; US 5,232,735): substantially tasteless sweetness inhibitor
effect on sweetness delivery profile of sucralose ([2]; US 6,461,658): significantly reducing the length of time during which sucralose sweetness is perceived
effect on sweetness delivery profile of aspartame ([2]; US 6,461,658, compared with effect on sucralose): The same effect is not observed for aspartame
effect on sweetness of aspartame ([2]; WO99/15032): increase sweetness synergistically
effect with alitame, Ace-K, saccharin or a mixture of aspartame and Ace-K ([2]; WO99/15032, compared with effect on aspartame): same effect is not observed
effect on sweetness of 5% sucrose solution ([2]; addition of 0.2% 2,4-DHB, Canadian Patent No. 1208966): increase in sweetness

O=C([O-])c1ccc(O)cc1O.[K+] [potassium salt of 2,4-DHB]
sweetness enhancement of sucrose solutions by different forms of 2,4-DHB [1]: enhances the sweetness of the sucrose solution in every case

O=C(O)c1ccc(O)c(O)c1 [3,4-dihydroxybenzoic acid (3,4-DHB), 3,4-dihydroxybenzoic acid]
SEV (%) [1]: 6.4%

O=C(O)c1cc(O)c(O)c(O)c1 [3,4,5-tryhydroxybenzoic acid (3,4,5-THB), 3,4,5-tryhydroxybenzoic acid]
SEV (%) [1]: 5.1%

O=C([O-])c1ccc(O)cc1O.[Na+] [sodium salt of 2,4-DHB]
sweetness enhancement of sucrose solutions by different forms of 2,4-DHB [1]: enhances the sweetness of the sucrose solution in every case

O=C(O)c1cccc(O)c1 [3-hydroxybenzoic acid (3-HB), 3-hydroxybenzoic acid]
sweetness enhancement of saccharin solution, alone versus combination [3]: enhances the sweetness to a greater degree alone than in combination with 2,4-DHB
effect on sweetness of the sucrose solution (dose response curve) [1]: enhances the sweetness of the sucrose solution
SEV of solution containing 500 ppm 2,4-DHB and 500 ppm of a second sweetener potentiator ([1]; second potentiator 500 ppm added to 500 ppm 2,4-DHB, 5% sucrose): significant positive effect
effect on sweetness of sucrose, aspartame and saccharin ([2]; pH 2.0 to 5.5, EP 0132444 and US 4,627,987): enhance sweetness

— US7851006B2, “Taste potentiator compositions and beverages containing same” (Cadbury Adams USA LLC, priority 2005, dated 2010)
